Holding throughout (assay): TMT LC-MSMS of 11-labelled proteins
The target in experiment [1] is T1, Isoform 3 of Hexokinase-1 (HK1) (Homo sapiens, UniProt P19367).
T1 sequence (P19367 1-921 isoform P19367-3): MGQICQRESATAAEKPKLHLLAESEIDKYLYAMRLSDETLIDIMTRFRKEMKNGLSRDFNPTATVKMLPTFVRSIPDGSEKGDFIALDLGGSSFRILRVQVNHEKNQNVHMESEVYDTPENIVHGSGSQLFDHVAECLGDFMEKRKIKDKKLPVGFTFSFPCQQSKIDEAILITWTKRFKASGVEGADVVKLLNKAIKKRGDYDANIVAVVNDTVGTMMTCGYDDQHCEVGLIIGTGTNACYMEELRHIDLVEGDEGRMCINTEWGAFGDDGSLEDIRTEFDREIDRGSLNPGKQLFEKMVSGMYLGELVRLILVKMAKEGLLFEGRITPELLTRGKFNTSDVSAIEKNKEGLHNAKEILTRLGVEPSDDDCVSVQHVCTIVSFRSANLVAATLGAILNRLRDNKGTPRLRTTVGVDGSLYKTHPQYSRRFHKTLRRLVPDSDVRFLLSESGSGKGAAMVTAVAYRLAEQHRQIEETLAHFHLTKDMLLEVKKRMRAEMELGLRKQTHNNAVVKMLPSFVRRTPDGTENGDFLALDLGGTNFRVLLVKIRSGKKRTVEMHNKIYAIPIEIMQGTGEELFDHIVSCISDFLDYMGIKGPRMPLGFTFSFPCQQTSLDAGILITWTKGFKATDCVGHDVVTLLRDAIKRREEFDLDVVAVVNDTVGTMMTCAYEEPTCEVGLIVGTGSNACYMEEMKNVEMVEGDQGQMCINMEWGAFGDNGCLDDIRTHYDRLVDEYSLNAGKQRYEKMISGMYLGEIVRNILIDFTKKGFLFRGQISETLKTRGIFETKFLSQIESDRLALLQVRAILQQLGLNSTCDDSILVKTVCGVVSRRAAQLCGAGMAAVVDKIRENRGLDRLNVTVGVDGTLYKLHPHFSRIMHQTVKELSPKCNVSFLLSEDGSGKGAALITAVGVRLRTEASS
It counts as cell-based. The source says:
(§1) Supplement 41467_2018_4343_MOESM4_ESM.xlsx, sheet "Exp3" | column: Abundance Ratio: (11) / (11 with PU-H71); Abundance Ratio: (11) / (DMSO); Abundances (Grouped): 11; Abundances (Grouped): 11 with PU-H71

The target in another experiment is T2, Peroxiredoxin-4 (PRDX4) (Homo sapiens, UniProt Q13162).
T2 sequence (Q13162 38-271): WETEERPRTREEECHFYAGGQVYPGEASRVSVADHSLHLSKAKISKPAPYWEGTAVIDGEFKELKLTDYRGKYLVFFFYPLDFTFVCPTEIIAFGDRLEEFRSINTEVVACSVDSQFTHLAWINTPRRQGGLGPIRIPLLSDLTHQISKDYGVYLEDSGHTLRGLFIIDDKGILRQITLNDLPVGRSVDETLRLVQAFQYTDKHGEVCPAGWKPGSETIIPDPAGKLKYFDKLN
The experiment is classed as cell-based.
Text: as §1

For experiment [2], the target named is T3, Phosphate carrier protein, mitochondrial (SLC25A3) (Homo sapiens, UniProt Q00325).
T3 sequence (Q00325 50-362): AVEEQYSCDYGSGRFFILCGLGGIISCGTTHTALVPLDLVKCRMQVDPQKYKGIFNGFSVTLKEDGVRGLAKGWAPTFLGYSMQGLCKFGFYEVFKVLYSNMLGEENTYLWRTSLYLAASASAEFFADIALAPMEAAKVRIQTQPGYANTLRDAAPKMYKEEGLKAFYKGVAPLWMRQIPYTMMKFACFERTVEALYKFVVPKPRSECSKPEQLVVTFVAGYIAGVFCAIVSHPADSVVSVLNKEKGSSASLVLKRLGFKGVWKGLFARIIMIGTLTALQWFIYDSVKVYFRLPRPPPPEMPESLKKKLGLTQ
It counts as cell-based.
Text: as §1

Experiment [3] deals with immunoglobulin gamma-1 heavy chain. It counts as cell-based, Homo sapiens. From the text: Supplement 41467_2018_4343_MOESM4_ESM.xlsx, sheet "Exp2" | column: Abundance Ratio: (11) / (11 with PU-H71); Abundance Ratio: (11) / (DMSO); Abundances (Grouped): 11; Abundances (Grouped): 11 with PU-H71

For `CC(=O)Oc1ccc2c(c1)Oc1cc(OC(C)=O)ccc1C21OC(=O)c2cc(C(=O)NCCOCCOCCNC(=O)CCCC(=O)N(CC#N)S(=O)(=O)c3ccc(C(=O)NCCCn4c(Sc5cc6c(cc5I)OCO6)nc5c(N)ncnc54)cc3)ccc21` [compound 11], the “Abundance Ratio: (11) / (11 with PU-H71)” value in experiment [1] (Exp3) was found to be 1.072; on Peroxiredoxin-4 (PRDX4) (Exp3) it was 0.973; in experiment [2] (Exp3), 0.732; in experiment [3] (sheet Exp2) it was 0.821. Also, the “Abundance Ratio: (11) / (DMSO)” value in experiment [1] (Exp3) is 2.893; at Peroxiredoxin-4 (PRDX4) (Exp3) it was 2.612; in experiment [2] (Exp3), 2.193; in experiment [3] (sheet Exp2), 0.807. For the same compound, the “Abundances (Grouped): 11” value was found to be 29.8 in experiment [1] (Exp3), 25.6 on Peroxiredoxin-4 (PRDX4) (Exp3), 121.3 in experiment [2] (Exp3) and 7483.9 in experiment [3] (sheet Exp2). Also, the “Abundances (Grouped): 11 with PU-H71” value in experiment [1] (Exp3, with PU-H71) is recorded as 27.8; at Peroxiredoxin-4 (PRDX4) (Exp3, with PU-H71) it was 26.3; in experiment [2] (Exp3, with PU-H71), 165.7; in experiment [3] (sheet Exp2, with PU-H71), 9110.6.
